From ChEMBL document CHEMBL1201862, “PubChem BioAssay data set” (2004)
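Grown in 96-well plates, cells were treated for 48 hours with each compound at five concentrations. Insufficient inhibition: endpoint recorded as highest concentration tested. GI50 is the concentration that inhibits growth by half.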 Calls of active or inactive are those of the source. Cut-off read from the data, not from the text of the source: active = GI50 up to about 1.1 µM and inactive = higher.

What was measured:
Test in all cases: inhibition of tumour cell growth, NCI panel, 48 h
[1] = system: OVCAR-4
[2] = system: MDA-MB-231
[3] = system: EKVX
[4] = system: MDA-N
[5] = system: DU-145
[6] = system: NCI/ADR-RES
[7] = system: NCI-H23
[8] = system: SW-620
[9] = system: SN12C
[10] = system: SF-268
[11] = system: SK-OV-3
[12] = system: UACC-62
[13] = system: NCI-H460
[14] = system: HOP-92
[15] = system: UO-31
[16] = system: SNB-19
[17] = system: KM12
[18] = system: SK-MEL-2
[19] = system: M14
[20] = system: SK-MEL-5
[21] = system: HOP-62
[22] = system: SK-MEL-28
[23] = system: HCT-15
[24] = system: OVCAR-8
[25] = system: SR
[26] = system: CCRF-CEM
[27] = system: MDA-MB-435
[28] = system: PC-3
[29] = system: CAKI-1
[30] = system: Hs-578T
[31] = system: K562
[32] = system: UACC-257
[33] = system: MCF7
[34] = system: A498
[35] = system: RPMI-8226
[36] = system: T47D
[37] = system: MOLT-4
[38] = system: LOX IMVI
[39] = system: COLO 205
[40] = system: SF-539
[41] = system: NCI-H226
[42] = system: HCC 2998
[43] = system: HL-60
[44] = system: OVCAR-5
[45] = system: IGROV-1
[46] = system: Malme-3M
[47] = system: 786-0
[48] = system: ACHN
[49] = system: SF-295
[50] = system: HCT-116
[51] = system: OVCAR-3
[52] = system: A549
[53] = system: NCI-H522
[54] = system: U-251
[55] = system: RXF 393
[56] = system: HT-29

In the case of c1cc(NC2=NCCO2)c2c(c1)OCO2, the GI50 [1] was > 100 µM (inactive), the GI50 [2] was > 100 µM (inactive) and the GI50 [3] was > 100 µM (inactive). For the same molecule, the GI50 [4] was > 100 µM (inactive), the GI50 [5] was > 100 µM (inactive) and the GI50 [6] was > 100 µM (inactive). For the same molecule, the GI50 [7] was > 100 µM (inactive), the GI50 [8] was > 100 µM (inactive) and the GI50 [9] was > 100 µM (inactive). For the same molecule, the GI50 [10] was > 100 µM (inactive), the GI50 [11] was > 100 µM (inactive) and the GI50 [12] was > 100 µM (inactive). For the same molecule, the GI50 [13] was > 100 µM (inactive), the GI50 [14] was > 100 µM (inactive) and the GI50 [15] was > 100 µM (inactive). The GI50 [16] was > 100 µM (inactive), the GI50 [17] was 80.2 µM (inactive) and the GI50 [18] was > 100 µM (inactive). The GI50 [19] was > 100 µM (inactive), the GI50 [20] was > 100 µM (inactive) and the GI50 [21] was > 100 µM (inactive). The GI50 [22] was > 100 µM (inactive), the GI50 [23] was greater than 100 µM and the GI50 [24] was > 100 µM (inactive). For the same molecule, the GI50 [25] was > 100 µM (inactive), the GI50 [26] was > 100 µM (inactive) and the GI50 [27] was > 100 µM (inactive). For the same molecule, the GI50 [28] was > 100 µM (inactive), the GI50 [29] was > 100 µM (inactive) and the GI50 [30] was > 100 µM (inactive). For the same molecule, the GI50 [31] was > 100 µM (inactive), the GI50 [32] was > 100 µM (inactive) and the GI50 [33] was > 100 µM (inactive). For the same molecule, the GI50 [34] was > 100 µM (inactive), the GI50 [35] was > 100 µM (inactive) and the GI50 [36] was > 100 µM (inactive). For the same molecule, the GI50 [37] was > 100 µM (inactive), the GI50 [38] was > 100 µM (inactive) and the GI50 [39] was > 100 µM (inactive). The GI50 [40] was > 100 µM (inactive), the GI50 [41] was > 100 µM (inactive) and the GI50 [42] was > 100 µM (inactive). For the same molecule, the GI50 [43] was > 100 µM (inactive), the GI50 [44] was > 100 µM (inactive) and the GI50 [45] was > 100 µM (inactive). For the same molecule, the GI50 [46] was > 100 µM (inactive), the GI50 [47] was > 100 µM (inactive) and the GI50 [48] was > 100 µM (inactive). For the same molecule, the GI50 [49] was > 100 µM (inactive), the GI50 [50] was > 100 µM (inactive) and the GI50 [51] was > 100 µM (inactive). For the same molecule, the GI50 [52] was > 100 µM (inactive), the GI50 [53] was > 100 µM (inactive) and the GI50 [54] was > 100 µM (inactive). For the same molecule, the GI50 [55] was > 100 µM (inactive) and the GI50 [56] was > 100 µM (inactive).
